The values that follow come from US20250120988A1, “SMALL MOLECULE COMPOUND FOR TREATING ISCHEMIC STROKE, ITS PREPARATION METHOD, AND APPLICATION” (SHANGHAI SIXTH PEOPLE'S HOSPITAL, priority 2023, published 2025).

SMILES strings stand for the structures.

In general, IC50 refers to the concentration needed to halve the response being measured.

One assay deals with MCAO model. As to the kind of experiment: MCAO cerebral ischemia model, cerebral infarction volume (TTC staining). To be noted: 30 mg/kg intraperitoneal; MCAO 30 minutes, 24 hours after ischemia. It counts as in vivo, mice. The protocol: Figure a illustrates the TTC staining results of brain slices obtained from animals sacrificed 24 hours after different drug treatments following MCAO ischemia for 30 minutes. The dark areas represent normal brain tissue, while the white areas represent infarcted brain tissue. CGS19755 was administered at a concentration of 1 mg/kg (intraperitoneal injection), PcTX-1 was administered at a concentration of 100 ng/kg (ASIC1a blocker, intranasal drip), LK-2 was administered at concentrations of 10 mg/kg or 30 mg/kg (intraperitoneal injection), and Saline was used as the control group. […] The specific steps are as follows: a transient focal ischemic model was formed by occluding the middle cerebral artery for 30 minutes in wild-type or ASIC1a gene knockout mice. The animals were anesthetized using the animal anesthesia machine (RWD). During the induction of anesthesia, the animals are placed in a transparent chamber (15×25×30 cm) containing 2% isoflurane. During the MCAO procedure, the animals are worn a mask delivering 1% isoflurane. Complete occlusion of the middle cerebral artery was confirmed using continuous laser Doppler blood flow measurement (Moor, FLPI-2). Animals with less than 50% reduction in blood flow during MCAO were excluded. […] In this test, mice were placed on the rotating rod and the time to fall was recorded. […]

The target in a further assay is T1, GluN1+NR2B (Homo sapiens, UniProt Q05586+Q13224).
T1 construct: expressed in transfected cells; host or cells: CHO cells
The assay is described as follows: Whole-cell patch clamp, blocking of GluN1+NR2B NMDAR current in CHO cells. Particulars: 100 μM NMDA and 1 μM glycine, read-out: IC50 of competitive antagonism against glutamate binding GluN1+NR2B currents. The assay is classed as cell-based. The protocol:
Figure a illustrates LK-2 concentration-dependent blocking of signal of GluN1+GluN2A and GluN1+GluN2B subtypes of NMDAR currents (recorded from the same CHO cell) in patch clamp experiments, with 100 μM NDMA and 1 μM glycine used to activate NMDAR currents. LK-2 concentrations were 1, 10, 100, and 500 μM in sequence. Figure b illustrates the dose-response curves fitted based on the current amplitudes recorded in Figure a, with IC50 representing the half-maximal inhibitory concentration. Smaller IC50 values indicate stronger blocking effects of the compound.
[drawing 3] • 2. Electrophysiological experiments refer to the use of patch clamp techniques to overexpress ASICs (ASIC1a) and NMDARs (GluNR1+NR2A or GluNR1+NR2B) in CHO cell lines (Chinese hamster ovary cells), with the above-mentioned proteins carrying GFP green fluorescent protein for identification under fluorescence microscopy. The synthesized small molecules are separately tested for their blocking effects on the currents generated by the two types of receptors, and the IC50 values are calculated. • 2.1 The experimental steps of the membrane clamp technique are as follows.
Whole-cell patch clamp recordings were performed on neurons or CHO cells cultured in a cell-culture dish mounted on a fixed stage upright microscope. The recording electrode (resistance 4-6 MΩ) was made of 1.5 mm borosilicate glass. […]
(In patch-clamp work, channel activity is measured electrically.)

T1 sequence (Q13224 27-1484, other chains not shown): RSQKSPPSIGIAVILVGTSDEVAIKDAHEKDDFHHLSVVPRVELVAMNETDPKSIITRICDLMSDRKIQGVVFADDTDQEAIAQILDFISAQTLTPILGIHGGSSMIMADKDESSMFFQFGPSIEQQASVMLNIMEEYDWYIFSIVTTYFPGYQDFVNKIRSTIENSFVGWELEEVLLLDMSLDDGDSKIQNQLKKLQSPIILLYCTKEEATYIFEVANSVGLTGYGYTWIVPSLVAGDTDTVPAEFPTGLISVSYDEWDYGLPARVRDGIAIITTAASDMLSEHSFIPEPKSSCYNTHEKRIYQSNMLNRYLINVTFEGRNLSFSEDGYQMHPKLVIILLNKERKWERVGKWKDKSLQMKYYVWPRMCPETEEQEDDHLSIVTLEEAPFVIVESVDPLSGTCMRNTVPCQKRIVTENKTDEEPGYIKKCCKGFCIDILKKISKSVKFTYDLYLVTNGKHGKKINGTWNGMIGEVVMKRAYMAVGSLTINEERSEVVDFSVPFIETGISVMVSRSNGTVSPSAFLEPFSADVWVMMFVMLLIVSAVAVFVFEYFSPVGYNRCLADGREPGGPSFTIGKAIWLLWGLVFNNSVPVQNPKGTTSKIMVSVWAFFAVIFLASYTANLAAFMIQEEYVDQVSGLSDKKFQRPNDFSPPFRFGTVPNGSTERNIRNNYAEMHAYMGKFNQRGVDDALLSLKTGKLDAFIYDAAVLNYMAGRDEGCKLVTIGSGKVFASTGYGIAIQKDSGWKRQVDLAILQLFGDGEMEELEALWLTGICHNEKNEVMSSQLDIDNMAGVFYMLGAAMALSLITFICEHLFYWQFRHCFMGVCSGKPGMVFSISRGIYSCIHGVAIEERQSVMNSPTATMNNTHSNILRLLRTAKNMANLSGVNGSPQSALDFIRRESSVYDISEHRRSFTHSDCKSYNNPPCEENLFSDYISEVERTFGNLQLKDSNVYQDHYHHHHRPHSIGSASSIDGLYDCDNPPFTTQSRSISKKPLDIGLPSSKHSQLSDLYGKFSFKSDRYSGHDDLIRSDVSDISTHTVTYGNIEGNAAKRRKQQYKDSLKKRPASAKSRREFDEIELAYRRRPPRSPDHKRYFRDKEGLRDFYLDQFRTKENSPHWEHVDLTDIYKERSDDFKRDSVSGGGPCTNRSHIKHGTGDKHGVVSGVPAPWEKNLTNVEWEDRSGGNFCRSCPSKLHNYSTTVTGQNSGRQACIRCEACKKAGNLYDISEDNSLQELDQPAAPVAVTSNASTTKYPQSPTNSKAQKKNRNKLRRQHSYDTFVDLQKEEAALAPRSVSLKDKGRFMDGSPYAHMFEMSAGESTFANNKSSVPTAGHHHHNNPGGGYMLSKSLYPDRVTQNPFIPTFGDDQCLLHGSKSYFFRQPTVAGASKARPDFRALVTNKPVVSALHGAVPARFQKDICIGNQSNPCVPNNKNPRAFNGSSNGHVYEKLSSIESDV

Turning to `O=C(O)C1CN(C(c2ccccc2)P(=O)(O)O)CCN1` (centres unmarked) [LK-2], the “reduction of volume of cerebral infarction” value with MCAO model turned out to be 52.8%. Moreover, on GluN1+NR2B, the IC50 worked out at 386 ± 109 µM.
